Among the test systems are COLO 205 colon; DLD-1 colon; HOP-62 NSCLC; OVCAR-4 ovarian; OVCAR-5 ovarian; RPMI-8226 leukemia; TK-10 renal; MDA-MB-231 breast; NCI-H460 lung.
Assay in all cases: NCI-60 cell line screen, 48 h

SMILES strings stand for the structures.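 Five concentrations, 48 hours, 96-well plates. GI50: concentration for 50% inhibition of growth. TGI denotes the concentration required for complete inhibition of growth.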

As for `CN(C)CCC(N)(P(=O)([O-])[O-])P(=O)([O-])[O-].N.N.[Pt+2]`, the GI50 in the test with COLO 205 colon, in the test with DLD-1 colon, in the test with HOP-62 NSCLC, with OVCAR-4 ovarian, in the test with OVCAR-5 ovarian and in the test on RPMI-8226 leukemia was over 100 µM in each case. Also, in the test on TK-10 renal, the GI50 is over 100 µM. The TGI in the test with COLO 205 colon, in the test with DLD-1 colon, with HOP-62 NSCLC, in the test with OVCAR-4 ovarian, with OVCAR-5 ovarian and with RPMI-8226 leukemia was over 100 µM each time. In the test on TK-10 renal, this compound displayed a TGI of over 100 µM.

In the case of `CC(C)=CCC/C(C)=C/CC/C(C)=C/CSC[C@H](NC(=O)CCCCCN1CCN(C)CC1)C(=O)NC1CCCCCC1`, the GI50 with COLO 205 colon was 1.85 µM; in the test with HOP-62 NSCLC it was 4.42 µM; in the test with MDA-MB-231 breast it was 1.93 µM; in the test on NCI-H460 lung it was 1.93 µM; in the test on OVCAR-4 ovarian it was 3.21 µM; in the test with OVCAR-5 ovarian it was 1.84 µM. In addition, the values for the GI50 in the test on RPMI-8226 leukemia and with TK-10 renal were 1.98 µM and 4.4 µM, respectively. The TGI in the test on COLO 205 colon was 3.63 µM; in the test on HOP-62 NSCLC, 19.3 µM; with MDA-MB-231 breast, 3.86 µM; in the test on NCI-H460 lung it was 3.69 µM; with OVCAR-4 ovarian it was 13.1 µM; in the test with OVCAR-5 ovarian, 3.6 µM. Moreover, the TGI in the test with RPMI-8226 leukemia stood at 4.67 µM; with TK-10 renal it was 9.11 µM.

In the case of `C/C(=C\C(=O)O[C@H]1[C@@H]2[C@H](C)CC[C@H]2[C@]2(C)O[C@@]1(C1CCCCC1)C[C@H]2OC(=O)CO)c1ccccc1`, the GI50 in the test on COLO 205 colon was 7.61 µM; in the test with HOP-62 NSCLC, 7 µM; with MDA-MB-231 breast it was 6.67 µM; in the test on NCI-H460 lung, 6.86 µM; with OVCAR-4 ovarian it was 7.25 µM; in the test with OVCAR-5 ovarian, 7 µM. Further, the GI50 was 7.2 µM in the test with RPMI-8226 leukemia and 7.6 µM with TK-10 renal. The TGI with COLO 205 colon stood at 15 µM; in the test on HOP-62 NSCLC, 13 µM; in the test on MDA-MB-231 breast, 13 µM; with NCI-H460 lung, 14.1 µM; with OVCAR-4 ovarian it was 13.8 µM; in the test with OVCAR-5 ovarian, 12.9 µM. In addition, the TGI was 16.6 µM with RPMI-8226 leukemia and 14.7 µM in the test with TK-10 renal.

Regarding `C=CCC1(O)c2ccccc2C(=O)c2c(OCC(=O)OCC)ccc(OCC(=O)OCC)c21` (configuration not stated), the GI50 in the test on COLO 205 colon is over 100 µM; in the test with HOP-62 NSCLC, over 100 µM; in the test on MDA-MB-231 breast, 25.6 µM; with NCI-H460 lung, 84.9 µM; in the test on OVCAR-4 ovarian, over 100 µM; in the test with OVCAR-5 ovarian it was over 100 µM. Moreover, the GI50 with RPMI-8226 leukemia was 89 µM; with TK-10 renal, over 100 µM. The TGI in the test with COLO 205 colon, in the test on HOP-62 NSCLC, in the test with MDA-MB-231 breast, in the test on NCI-H460 lung, in the test with OVCAR-4 ovarian and in the test on OVCAR-5 ovarian was over 100 µM each time. The TGI in the test with RPMI-8226 leukemia and in the test with TK-10 renal was over 100 µM each time.

On to `O=C1NN2CC(c3ccccc3)=NN=C2c2ccccc21`, for which the GI50 is 20.3 µM in the test on COLO 205 colon; 35 µM in the test on HOP-62 NSCLC; 26.4 µM with MDA-MB-231 breast; 30.3 µM in the test with NCI-H460 lung; 61 µM in the test with OVCAR-4 ovarian; 37.9 µM in the test on OVCAR-5 ovarian. Besides, the results for the GI50 in the test on RPMI-8226 leukemia and in the test with TK-10 renal were 19.4 µM and 31.5 µM, respectively. The TGI in the test with COLO 205 colon is 41 µM; with HOP-62 NSCLC it was over 100 µM; in the test with MDA-MB-231 breast it was 79.1 µM; in the test with NCI-H460 lung, 92.6 µM; in the test on OVCAR-4 ovarian, over 100 µM; in the test with OVCAR-5 ovarian, over 100 µM. For the same compound, the TGI in the test on RPMI-8226 leukemia turned out to be 41.7 µM; with TK-10 renal it was 98.3 µM.

On to `C[N+]1([O-])C2CCC1CC(OC(=O)C(CO)c1ccccc1)C2` (configuration not stated), for which the TGI with COLO 205 colon, in the test on HOP-62 NSCLC, in the test with MDA-MB-231 breast, in the test with NCI-H460 lung, in the test on OVCAR-4 ovarian and in the test on OVCAR-5 ovarian was over 100 µM each time. Further, the TGI with RPMI-8226 leukemia and with TK-10 renal was over 100 µM each time.

For `O=C1NC(=O)C(c2c[nH]c3ccccc23)=C1c1c[nH]c2ccccc12`, the GI50 was 9.18 µM in the test on COLO 205 colon; 16.5 µM in the test on HOP-62 NSCLC; 12.6 µM in the test on MDA-MB-231 breast; 10.6 µM in the test on NCI-H460 lung; 10.9 µM in the test on OVCAR-4 ovarian; over 25 µM with OVCAR-5 ovarian. Further, the GI50 is 9.48 µM with RPMI-8226 leukemia and 19.2 µM in the test with TK-10 renal. The TGI in the test with COLO 205 colon, in the test with HOP-62 NSCLC, in the test on MDA-MB-231 breast, in the test with NCI-H460 lung, in the test with OVCAR-4 ovarian and in the test with OVCAR-5 ovarian was over 25 µM throughout. In addition, the TGI in the test on RPMI-8226 leukemia and in the test with TK-10 renal was over 25 µM each time.

For `O=C(CCCc1ccc(N(CCCl)CCCl)cc1)NCc1ccccc1`, the GI50 was 13.5 µM in the test on COLO 205 colon; 8 µM in the test on HOP-62 NSCLC; 21.3 µM with MDA-MB-231 breast; 2.81 µM in the test with NCI-H460 lung; 12.5 µM in the test with OVCAR-4 ovarian; 33.1 µM with OVCAR-5 ovarian. In addition, the GI50 in the test on RPMI-8226 leukemia was 4.57 µM; in the test with TK-10 renal, 15.5 µM. In addition, the TGI is 33 µM in the test with COLO 205 colon; 40.5 µM in the test with HOP-62 NSCLC; over 100 µM in the test on MDA-MB-231 breast; 59.4 µM in the test with NCI-H460 lung; 35.1 µM in the test on OVCAR-4 ovarian; over 100 µM in the test on OVCAR-5 ovarian. Besides, the TGI in the test on RPMI-8226 leukemia was determined as 27.4 µM; with TK-10 renal it was 56.8 µM.

As for `Cc1c(Cl)cccc1C(=O)Nc1nc2c(s1)CN(C(=O)Nc1cccc(C(F)(F)F)c1)CC2`, the GI50 is 0.174 µM with COLO 205 colon; 0.278 µM in the test on HOP-62 NSCLC; 0.59 µM in the test with MDA-MB-231 breast; 0.182 µM in the test with NCI-H460 lung; 1.45 µM in the test with OVCAR-4 ovarian; 0.603 µM in the test on OVCAR-5 ovarian. The GI50 in the test on RPMI-8226 leukemia is 0.202 µM; with TK-10 renal it was 1.56 µM. Also, the TGI was 4.36 µM with COLO 205 colon; over 50 µM with HOP-62 NSCLC; over 35.6 µM in the test with MDA-MB-231 breast; over 17.4 µM in the test with NCI-H460 lung; over 50 µM with OVCAR-4 ovarian; over 50 µM in the test on OVCAR-5 ovarian. The TGI in the test on RPMI-8226 leukemia is over 39.2 µM; with TK-10 renal, over 50 µM.

Regarding `C=C(CO)C(=O)OC1CC(=C)C2CC(O)C(C)C2C2OC(=O)C(=C)C12` (configuration not stated), the TGI was 90.4 µM with COLO 205 colon; 46.5 µM in the test with HOP-62 NSCLC; 36.2 µM in the test with MDA-MB-231 breast; over 100 µM in the test with NCI-H460 lung; over 100 µM with OVCAR-4 ovarian; over 100 µM in the test on OVCAR-5 ovarian. Moreover, the TGI in the test on RPMI-8226 leukemia was determined as 58.1 µM; with TK-10 renal it was 33.2 µM.
